Counter-ions that a name gives are not always drawn. Like-named read-outs stand apart in the source and are kept apart here.
How the values were obtained:
[1] = logD determination (liquid-liquid distribution chromatography, octanol-coated column)
Description: The logD of the sample was determined at pH 7.4 by liquid-liquid distribution chromatography. Compounds were eluted from an octanol-coated column with an octanol-saturated mobile phase adjusted to pH 7.4. Compound retention time was converted to logD value by comparison to the retention time of a set of standard compounds with well-characterized logD octanol values.

[2] = logP determination by titration in octanol/water
Excerpt: The shift of the aqueous pKas in the presence of octanol was used to determine the logP of the different species.

[3] = pKa determination by titration in aqueous solution (UV or pH monitored)
Description: Test drug pKas were determined experimentally by titration in aqueous solution. Ionization state was monitored by UV or pH. Reported values are the average of three independent determinations. […] Drug concentration was in the range 17–31 μM (UV) or ≥0.4 mM (pH).

[4] = In vitro binding assay: free test drug recovered after 3 h incubation with and without patiromer in SGF, acetate buffer or SIF; conditions: for SGF / SIF / AB: QSPR input data; for SGF: test matrix SGF; for SIF: test matrix SIF; for AB: test matrix acetate buffer (AB); for In Vitro Binding (% Drug Recovered) Acetate Buffer (pH 4.5) / In Vitro Binding (% Drug Recovered) SGF (pH 3) / In Vitro Binding (% Drug Recovered) SIF (pH 5.9): patiromer 25.2 g/L, 3 h, 37°C, geometric mean of 12 replicates; for Binding categories (level of in vitro interaction with patiromer): across SGF, AB and SIF test matrices; for In Vitro Binding (% Drug Recovered) SGF (pH 3): simulated gastric fluid, final pH 3.0; for In Vitro Binding (% Drug Recovered) SIF (pH 5.9): simulated intestinal fluid, final pH 5.9; for In vitro patiromer binding category: strong, weak or non-binding
Description: Patiromer binding to test compounds was assessed by comparing free test drug concentrations after incubation with and without patiromer. […] Test drug concentrations were based on the lowest clinically relevant dose of test drug in US prescribing information in a 1-L volume.
Three test buffers were used: simulated gastric fluid without added pepsin (SGF; initial pH 1.2), acetate buffer (AB; initial pH 4.5), and simulated intestinal fluid without added pancreatin (SIF; initial pH 6.8). Tween-20 was included at 0.05% v/v as a surfactant to aid in solubilizing test drugs.
Binding studies were performed in a 10 ml volume in 16×100 mm borosilicate tubes, and incubated for 3 h at 37°C with end-over-end rotation at ~25 rpm. After incubation, patiromer was allowed to settle for 5 min; supernatants were withdrawn and passed through a 0.45 μm filter, collected by centrifugation, and transferred to chromatography vials for analysis. Control samples containing buffer and drug, but without patiromer, were subjected to the same experimental process. For 24 of the test drugs, a reversed phase high performance liquid chromatography method was used for analysis in the three test matrices. […] During method qualification, we conducted a pretest of each drug in test media alone to assure no significant loss in recovery during the incubation or filtration steps. If there was not sufficient recovery compared to theoretical concentration, the drug could not be evaluated in that medium. The recovered drug in the presence or absence of patiromer was used to calculate percent recovery of test drug, and represents the geometric mean of 12 replicates.
To measure binding, each compound was co-incubated with patiromer using the highest single clinical dose of polymer and the minimum clinical dose of test drug. […] Following co-incubation, patiromer and any bound drug were removed by centrifugation and the remaining unbound (recovered) drug was measured in the supernatant.

[5] = octanol-coated column with octanol-saturated mobile phase, pH 3
[6] = octanol-coated column with octanol-saturated mobile phase, pH 4.5
[7] = octanol-coated column with octanol-saturated mobile phase, pH 5.9
[8] = aqueous solution, pKa (A = acid), acidic group, average of three determinations
[9] = aqueous solution, pKa (B = base), basic group, average of three determinations

Row | SMILES | chromatographic logD ([1]; pH 3) | chromatographic logD ([1]; pH 4.5) | chromatographic logD ([1]; pH 5.9) | logP [2] | pKa [3] | chromatographic logD [1, 5] | chromatographic logD [1, 6] | chromatographic logD [1, 7] | SGF [4] | SIF [4] | AB [4] | In Vitro Binding (% Drug Recovered) Acetate Buffer (pH 4.5) [4] [%] | In Vitro Binding (% Drug Recovered) SGF (pH 3) [4] [%] | In Vitro Binding (% Drug Recovered) SIF (pH 5.9) [4] [%] | logP ([2]; octanol/water) | pKa [3, 9] | In vitro patiromer binding category [4] | Binding categories (level of in vitro interaction with patiromer) [4] | pKa [3, 8] | pKa (A = acid) ([3]; acidic group, average of three determinations)
1 | CC1(C)S[C@@H]2[C@H](NC(=O)[C@H](N)c3ccc(O)cc3)C(=O)N2[C@H]1C(=O)O [Amoxicillin] | – | – | – | – | – | 1.65 | 0.46 | 0 | – | 99.4 | 99.2 | 99.2 | – | 99.4 | -0.02 | 7.35 | – | No binding (<30% drug bound in any test matrix) | 9.59 | 2.60
2 | COc1ccc(-n2nc(C(N)=O)c3c2C(=O)N(c2ccc(N4CCCCC4=O)cc2)CC3)cc1 [Apixaban] | – | – | – | – | – | < 1.4 | < 1.4 | < 1.4 | 75.6 | 97.8 | 97.3 | 97.3 | 75.6 | 97.8 | < 1.4 | – | – | No binding (<30% drug bound in any test matrix) | – | –
3 | CC(=O)Oc1ccccc1C(=O)O [Aspirin] | – | – | – | – | – | 0.78 | -0.14 | -1.5 | 100.7 | 99.9 | 99.8 | 99.8 | 100.7 | 99.9 | 0.9 | – | – | No binding (<30% drug bound in any test matrix) | – | –
4 | CC(C)c1c(C(=O)Nc2ccccc2)c(-c2ccccc2)c(-c2ccc(F)cc2)n1CC[C@@H](O)C[C@@H](O)CC(=O)O [Atorvastatin calcium] | – | – | – | – | – | – | – | – | 91.2 | 101.1 | 93.3 | 93.3 | 91.2 | 101.1 | – | – | – | No binding (<30% drug bound in any test matrix) | – | –
5 | C[C@@H](NCCCc1cccc(C(F)(F)F)c1)c1cccc2ccccc12 [Cinacalcet HCl] | – | – | – | – | – | 2.41 | 2.44 | 2.83 | 13.4 | 18.3 | 19.3 | 19.3 | 13.4 | 18.3 | 5.58 | 8.85 | Strong patiromer binding | – | – | –
6 | NS(=O)(=O)c1cc(C(=O)O)c(NCc2ccco2)cc1Cl [Furosemide] | – | – | – | – | – | – | – | – | 67.3 | 79.1 | 94.5 | 94.5 | 67.3 | 79.1 | – | – | – | Weak binder (30–55% bound in one test matrix) | – | –

The next lines start with results.

Row | chromatographic logD ([1]; pH 3) | chromatographic logD ([1]; pH 4.5) | chromatographic logD ([1]; pH 5.9) | logP [2] | pKa [3] | chromatographic logD [1, 5] | chromatographic logD [1, 6] | chromatographic logD [1, 7] | SGF [4] | SIF [4] | AB [4] | In Vitro Binding (% Drug Recovered) Acetate Buffer (pH 4.5) [4] [%] | In Vitro Binding (% Drug Recovered) SGF (pH 3) [4] [%] | In Vitro Binding (% Drug Recovered) SIF (pH 5.9) [4] [%] | logP ([2]; octanol/water) | pKa [3, 9] | In vitro patiromer binding category [4] | SMILES | Binding categories (level of in vitro interaction with patiromer) [4] | pKa [3, 8] | pKa (A = acid) ([3]; acidic group, average of three determinations)
7 | 3.25 | 3.12 | 2.25 | 3.25 | 4.94 | – | – | – | – | – | – | – | – | – | – | – | – | CC(=O)CC(c1ccccc1)c1c(O)c2ccccc2oc1=O (racemic) [Warfarin (R/S), Warfarin] | – | – | –
8 | – | – | – | – | – | -0.3 | -0.3 | -0.3 | 85.7 | 94.2 | 90.1 | 90.1 | 85.7 | 94.2 | -0.3 | – | – | Oc1ncnc2[nH]ncc12 [Allopurinol] | No binding (<30% drug bound in any test matrix) | 9.18 | –
9 | – | – | – | – | – | 1.44 | 1.44 | 1.46 | – | – | – | – | – | – | 3.39 | – | – | CCOC(=O)C1=C(COCCN)NC(C)=C(C(=O)OC)C1c1ccccc1Cl (centres unmarked) [Amlodipine besylate] | – | – | –
10 | – | – | – | – | – | – | – | – | 88.7 | 104.4 | 95 | 95 | 88.7 | 104.4 | – | – | non-binding | CC1=C(C(=O)O)N2C(=O)[C@@H](NC(=O)[C@H](N)c3ccccc3)[C@H]2SC1 [Cephalexin] | No binding (<30% drug bound in any test matrix) | – | –
11 | – | – | – | – | – | 2.4 | 3.67 | 4.03 | 66 | – | – | – | 66 | – | 4.06 | 4.66 | Weak binders | COC(=O)[C@H](c1ccccc1Cl)N1CCc2sccc2C1 [Clopidogrel bisulfate] | Weak binder (30–55% bound in one test matrix) | – | –
